Laboratory results from PubChem BioAssay (NCI).
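Where inhibition never reached the appropriate level, the endpoint shown equals the highest concentration tested. Otherwise, values were interpolated linearly from a five-concentration, 48-hour dose response in 96-well plates. TGI is the concentration that stops growth completely.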

Legend:
Assay in all cases: NCI tumour cell line growth inhibition, 48 h
[1] = test system: 786-0 renal
[2] = test system: A549 NSCLC
[3] = test system: CAKI-1 renal
[4] = test system: CCRF-CEM leukemia
[5] = test system: COLO 205 colon
[6] = test system: DU-145 prostate
[7] = test system: EKVX NSCLC
[8] = test system: HCC-2998 colon
[9] = test system: HCT-15 colon
[10] = test system: HL-60(TB) leukemia
[11] = test system: HOP-62 NSCLC
[12] = test system: HT29 colon
[13] = test system: IGROV1 ovarian
[14] = test system: K-562 leukemia
[15] = test system: KM12 colon
[16] = test system: LOX IMVI melanoma
[17] = test system: M14 melanoma
[18] = test system: MALME-3M melanoma
[19] = test system: MCF7 breast
[20] = test system: MDA-MB-231 breast
[21] = test system: MDA-N
[22] = test system: MOLT-4 leukemia
[23] = test system: NCI-H23 lung
[24] = test system: OVCAR-8 ovarian
[25] = test system: PC-3 prostate
[26] = test system: RPMI-8226 leukemia
[27] = test system: RXF 393 renal
[28] = test system: SF-268 CNS
[29] = test system: SF-295 CNS
[30] = test system: SK-MEL-28 melanoma
[31] = test system: SK-MEL-5 melanoma
[32] = test system: SK-OV-3 ovarian
[33] = test system: SN12C renal
[34] = test system: SNB-75 CNS
[35] = test system: SR leukemia
[36] = test system: SW-620 colon
[37] = test system: T-47D breast
[38] = test system: TK-10 renal
[39] = test system: UACC-257 melanoma
[40] = test system: UACC-62 melanoma
[41] = test system: A498 renal
[42] = test system: ACHN renal
[43] = test system: BT-549 breast
[44] = test system: HCT-116 colon
[45] = test system: HOP-92 NSCLC
[46] = test system: HS 578T breast
[47] = test system: MDA-MB-435
[48] = test system: NCI-H226 lung
[49] = test system: NCI-H460 lung
[50] = test system: NCI/ADR-RES ovarian
[51] = test system: OVCAR-3 ovarian
[52] = test system: OVCAR-4 ovarian
[53] = test system: OVCAR-5 ovarian
[54] = test system: SF-539 CNS
[55] = test system: SK-MEL-2 melanoma
[56] = test system: SNB-19 CNS
[57] = test system: UO-31 renal

Measured: TGI

C/C(=C\CCC1=CC(=O)OC1)CCC1C2C(=O)CC(C)[C@@]3(C)CC[C@]1(C)[C@@]23C (some centres undefined)
not listed: [41] | [42] | [43] | [44] | [45] | [46] | [47] | [48] | [49] | [50] | [51] | [52] | [53] | [54] | [55] | [56] | [57]
> 10 µM: all other assays above

C[C@]12C(=O)OC[C@H](c3ccccc3)N1C(=O)N(Cc1ccccc1)[C@@H]2CO
not listed: [23] | [26] | [37]
> 100 µM: all other assays above
